Measurements as given in patent publication US20170157001A1, “Compositions Comprising Strontium and Uses Thereof in the Treatment or Prevention of Gingivitis, Periodontitis, Periodontitis as a Manifestation of Systemic Diseases, and Necrotizing Periodontal Diseases” (priority 2006, published 2017).

How the values were obtained:
[1] = Determination of solubility velocity by ICP-MS in 0.1 M hydrochloride solution; settings: in hydrochloride 0.1 M, 37° C., 84Sr signal
Method: Determination of solubility velocity by Inductively Coupled Plasma-Mass Spectrometry (ICP-MS)
The solubility is measures as strontium signals over time using ICP-MS. Using this technique it is possible to follow multiple isotopes of the element, here, ^84Sr, ^86Sr, ^87Sr and ^88Sr.
A hydrochloride solution (0.1 M) was added to the sample and the sample then immediately enters, by means of a peristaltic pump, the atomizer of the ICP-MS apparatus. The pump speed was 4.4 ml/min. […] The temperature of the HCl solution was 37° C.
The solubility velocity of the compound is obtained by analysing the slopes of the front curves. The first curve represents the experiment and the second curve the apparatus, thus the difference between the slopes of the two curves are used to calculate the solubility velocity by division with the top value.

[2] = relative to cholecalciferol itself; cited from earlier work

SMILES: [Cl-].[Cl-].[Sr+2] [strontium chloride]
- solubility velocity [1]: very high

SMILES: C=C1/C(=C\C=C2/CCC[C@]3(C)[C@@H]([C@H](C)CCCC(C)(C)O)CC[C@@H]23)C[C@@H](O)C[C@@H]1O [1,25 dihydroxycholecalciferol]
- times more effective in terms of bioavailability than cholecalciferol [2]: ten

SMILES: C=C1CC[C@H](O)C/C1=C/C=C1\CCC[C@]2(C)[C@@H]([C@H](C)CCCC(C)(C)O)CC[C@@H]12 [25-hydroxycholecalciferol]
- times more effective in terms of bioavailability than cholecalciferol [2]: five
